The source of these data is US20230372361A1, “USE OF OXYGENATED CHOLESTEROL SULFATES FOR TREATING INFLAMMATORY CONDITIONS” (Durect Corporation, priority 2020, published 2023).

Data set [1] can be described thus: Tissue distribution by quantitative whole body autoradiography, intravenous. As to conditions: iv 10 mg/kg. Type of data set: in vivo, male Sprague Dawley rats. How it is done: (§1) Nine male Sprague Dawley rats (Group 1) were designated for the pharmacokinetic phase, 3 male Sprague Dawley rats (Group 2) for the excretion mass balance phase, and 7 male Sprague Dawley rats (Group 3) and 9 male Long Evans rats (Group 4) for the tissue distribution phase. All animals received a single intravenous dose of [^14C]-25HC3S at 10 mg/kg and a target radioactivity of 225 μCi/kg. Blood samples were collected from all Group 1 animals at approximately 0.083, 0.25, 0.5, 1, 2, 4, 8, 12, 24, 48, and 72 hours post-dose. Urine and feces were collected from all Group 2 animals periodically through 168 hours post-dose. […] Following blood collection, animals were euthanized by CO2 inhalation and carcasses frozen in a dry ice/hexane bath for processing by quantitative whole body autoradiography. Whole blood, plasma, urine, feces, cage rinse, and cage wash were analyzed for total radioactivity by liquid scintillation counting.

Data set [2] can be described thus: Plasma pharmacokinetics of radioactivity, single intravenous dose. As to conditions: single intravenous (bolus) dose 10 mg/kg; total radioactivity. Type of data set: in vivo, male Sprague Dawley rats. As for the experimental part:
as §1

Data set [3] is described as follows: Metabolite profiling of plasma and feces after oral dose (radio-HPLC, HPLC/MS). On the set-up: species or system rats. The note with it: Sprague Dawley, rat, in vivo, 75 mg/kg. How it is done: Radiolabeled components in plasma and feces extracts were profiled and identified using radio-high performance liquid chromatography (HPLC) and high performance liquid chromatography/mass spectrometry (HPLC/MS) methods.
Plasma pools were prepared for Group 1 (75 mg/kg, [14C]-25HC3S) samples collected at 2, 4, and 6 hours post-dose. […] One metabolite M29 was identified as 25-hydroxycholesterol with 37% ROI and a concentration of 1233 ng-equiv./g.
Feces pools were prepared for Group 2 (75 mg/kg, [^14C]-25HC3S) samples collected from 0 to 24, 24 to 48, 48 to 72, 72 to 96, 96 to 120, 120 to 144, and 144 to 168 hours post-dose. A total of eleven metabolites were identified. None of the metabolites were present at ≥5% of dose. Metabolites present at 2-5% of dose were M1(4.5% of total dose and 1%-69% ROI), M3 (4.6% of total dose and 1%-44% ROI), M4 (2.0% of total dose and 0%-10% ROI), M8 (3.1% of total dose and 1%-46% ROI), M29 (1.9% of total dose and 0%-2% ROI), and M30 (3.3% of total dose and 0%-5% ROI).

The next data set relates to Huh-7 cells. Put plainly: Global methylation, LINE-1 assay (pyrosequencing). The note with it: HG media, 25HC3S for 4 hours. Type of data set: cell-based, human. How it is done:
Each sample, 2 was sent to […], Inc. (Hopkinton, MA) for analysis of global methylation bisulfite sequencing. The same samples, 6 μg, were sent to Novogene Co., Ltd (Tianjin, China) for analysis of whole genome bisulfite sequencing (WGBS). Total RNA was isolated using the Promega SV total RNA isolation system (Madison, WI) with DNase treatment. […] Real-time RT-PCR was performed using SYBR Green as the indicator on ABI 7500 Fast Real-Time PCR System (Applied Biosystems, Foster City, CA). Amplifications of β-actin or GAPDH were used as internal controls. Relative messenger RNA (mRNA) expression was quantified with the comparative cycle threshold (Ct) method using the primer set shown in Table 1.1 and was expressed as 2^-ΔΔct. […] PCR reaction and product purification were performed as per the manufacturer's protocol (GE Healthcare Life Sciences). The PCR products, 10 μl, were sequenced by Pyrosequencing on the PSQ96 HS System following the manufacturer's instructions (Pyrosequencing, Qiagen). The methylation status of each CpG site was determined individually as an artificial C/T SNP using QCpG software (Pyrosequencing, Qiagen). The methylation level at each CpG site was calculated as the percentage of the methylated alleles divided by the sum of all methylated and unmethylated alleles. The mean methylation level was calculated using methylation levels of all measured CpG sites within the targeted region of each gene. Each experiment included non-CpG cytosines as internal controls to detect incomplete bisulfite conversion of the input DNA. In addition, a series of unmethylated and methylated DNA were included as controls in each PCR assay. Furthermore, PCR bias testing was performed by mixing unmethylated control DNA with in vitro methylated DNA at different ratios (0%, 5%, 10%, 25%, 50%, 75%, and 100%), followed by bisulfite modification, PCR, and Pyro-sequencing analysis.

Take `C[C@H](CCCC(C)(C)O)[C@H]1CC[C@H]2[C@@H]3CC=C4C[C@@H](OS(=O)(=O)O)CC[C@]4(C)[C@H]3CC[C@]12C` [25HC3S, 25-hydroxycholesterol-3-sulfate]: in data set [1], the “plasma:whole blood AUClast ratio” value is reported as 0.79; the “tissue concentrations by 168 hours post-dose” value was “below quantitation limit in all tissues except adrenal gland, harderian gland, liver, and small intestine”. For the same compound, the “tissue distribution of parent and/or metabolites” value in data set [1] (Group 3) was “broadly distributed and detected by quantitative whole body autoradiography in all tissues except the eye (lens)”. Further, in data set [1] (calculated using AUClast), the “tissue:plasma ratio, liver” value is reported as 11.4 and the “tissue:plasma ratio, small intestine (wall)” value is recorded as 7.44. For the same compound, the AUClast in liver in data set [1] (derived radioactivity) is ≤ 364,000 h·ng/g. For the same compound, in data set [2], the “mean plasma C0” value is reported as 25,900 ng-equiv./g. For the same compound, in data set [3], the ROI in feces is 0-88% and the amount in feces is given as 71.1 % of total dose. Further, in the data set with Huh-7 cells, the “Reduction of methylation (demethylation) at LINE-1 Pos1” value is −5%, the “Reduction of methylation (demethylation) at LINE-1 Pos3” value is on record as −10% and the “Reduction of methylation (demethylation) at LINE-1 Pos 4” value is reported as −5.6%.
